Measured values as given in US8802723B2, “Metabolic syndrome-improving agent and medicine, supplement, functional food and food additive containing the same” (ARKRAY, Inc., priority 2005, dated 2014).

Tests used:
adiponectin mRNA = adiponectin mRNA expression in differentiated 3T3-L1 adipocytes (Light Cycler); format: cell-based; settings: 3T3-L1, 7 days after differentiation induction, non-treatment control = 100, average ± standard error
Procedure: Differentiation Induction Medium (0.25 μM DEX, 0.5 mM MIX, 10 μg/mL Insulin/10% FBS/DMEM)
55 mL of FBS (fetal bovine serum (manufactured by GIBCO)) was added to 500 mL of DMEM (manufactured by SIGMA) so as to prepare 10% FBS/DMEM. To this 10% FBS/DMEM, 138.75 μL of 1 mM DEX (dexamethasone)/DMSO (manufactured by Nacalai Tesque, Inc.) and 555 μL of 10 mg/mL insulin/PBS (manufactured by SIGMA) were added. Incidentally, the insulin/PBS was obtained by adding 1N HCl to PBS in advance so as to make the solution acidic enough to allow insulin dissolution and then dissolving insulin. […]
Next, culture preadipocytes 3T-L1 were thawed, inoculated in a 100 mm dish and cultured until 3T3-L 1 cells reached about 80% confluence. […] 7 days after the initiation of the differentiation induction, mRNA was extracted using Sepasol(R)—RNA I super (manufactured by Nacalai Tesque, Inc.), and the mRNA expression amounts of 36B4, aP2 and adiponectin, which were indicators of an early period of adipocyte differentiation, were measured using Light Cycler™. Also, the medium 7 days after the differentiation induction was taken in an amount of 1 mL from each well, and the amount of adiponectin in the medium supernatant was measured using a mouse/rat adiponectin ELISA kit (trade name) (manufactured by Otsuka Pharmaceutical Co., Ltd.). […]

[1] = tested on: adiponectin secretion in 3T3-L1 cells; experiment: adiponectin secretion amount of 3T3-L1 adipocytes by ELISA; format: cell-based; settings: for Adiponectin secretion amount: 3T3-L1 medium supernatant 7 days after differentiation induction, non-treatment control 3.49 ± 0.78, average ± standard error
Procedure: Next, culture preadipocytes 3T-L1 were thawed, inoculated in a 100 mm dish and cultured until 3T3-L 1 cells reached about 80% confluence. A single dish of 3T3-L1 that had reached about 80% confluence was subcultured to a single 6-well plate and further cultured until the 3T3-L1 cells reached confluence in the 6-well plate, and then the medium was replaced with the differentiation induction medium, followed by differentiation induction. 48 hours later, the medium was replaced with the differentiation promotion medium, and thereafter, the medium was replaced with the differentiation promotion medium every two days. 7 days after the initiation of the differentiation induction, mRNA was extracted using Sepasol(R)—RNA I super (manufactured by Nacalai Tesque, Inc.), and the mRNA expression amounts of 36B4, aP2 and adiponectin, which were indicators of an early period of adipocyte differentiation, were measured using Light Cycler™. Also, the medium 7 days after the differentiation induction was taken in an amount of 1 mL from each well, and the amount of adiponectin in the medium supernatant was measured using a mouse/rat adiponectin ELISA kit (trade name) (manufactured by Otsuka Pharmaceutical Co., Ltd.). […]
Only the strips of the antibody plates necessary for the analysis were taken out. […] 100 μL of the standard solutions with respective concentrations and 100 μL of the diluted analytes were added to individual wells and measured in duplicate. Incidentally, the standard solutions always were measured for each measurement and each plate. […] After 100 μL of the substrate solution was added to each well of the antibody plate and allowed to stand still for reaction for 15 minutes at room temperature, 100 μL of the reaction stop solution was added to each well of the antibody plate, and then the absorbance at 450 nm in each well was measured with a plate reader.

CC(C)=CCC/C(C)=C/COc1ccc2ccc(=O)oc2c1 [Aurapten, aurapten] was tested, and the “Adiponectin mRNA expression amount (ratio to 36B4)” value (adiponectin mRNA; aurapten 1 μM) was 144.5 ± 26.7, the “Adiponectin mRNA expression amount (ratio to 36B4)” value (adiponectin mRNA; aurapten 5 μM) was 161.4 ± 40.2 and the Adiponectin secretion amount ([1]; aurapten 1 μM) was 3.64 ± 0.82. For the same molecule, the Adiponectin secretion amount ([1]; aurapten 5 μM) was 4.69 ± 0.16 and the “effect on adiponectin secretion in adipocytes (in words)” value ([1]; compared with non-treated control medium) was “enhance the secretion of adiponectin”.
